These results are taken from US20250186423A1, “METHODS OF TREATING CANCER AND OTHER CONDITIONS WITH A MU OPIOID RECEPTOR ANTAGONIST” (priority 2022, published 2025).

The test system of data set [1] is Human umbilical vein endothelial cells (HUVEC). As to the kind of experiment: HUVEC cell tube formation. The data set is classed as cell-based. The following applies: 0-1000 nM, 18 hours, absence of exogenous opioids. On the procedure: Two independent model systems were used to explore the role of MOR and endogenous opioids on angiogenesis. Human umbilical vein endothelial cells (HUVEC) in culture initiate angiogenesis through tube formation when cultured on an appropriate extracellular matrix. In a living system, the chicken egg chorioallantoic membrane assay (CAM) allows direct visualization of new blood vessel formation.
Specifically, the HUVEC cell tube formation was assessed in the presence of various doses (0-1000 nM) of three different Mu opioid receptor antagonists (axelopran, naloxegol, and methylnaltrexone (MNTX)). For this testing, the HUVEC cells were exposed to the various MOR antagonist concentrations and incubated under the following conditions: Briefly, 50 μL of Matrigel in 96 well plates was loaded to make one layer of extracellular matrix. The plate was kept for 1 hour at 37° C. HUVEC cells were seeded on top of Matrigel (0.02×10^6 cells/well) and waited for 4 h to form tube formation. […] Once tubes formed, cells were treated with increasing amounts of the test compounds (axelopran, naloxegol, and MNTX) and incubated for 18 hours. Cells were stained with Calcein AM and images were captured. The data analysis was performed using NIH imageJ software. Tube length was measure and data was plotted using prism software.

The test system of data set [2] is human microvascular endothelial cells. The following applies: Feng et al. BMC Anesthesiol (2021); cited from earlier work.
Data set [3] deals with MDA-MB-231 tumor cell line. As to the kind of experiment: Breast cancer tumor progression in the CAM assay. The data set is classed as in vivo, chicken. The following applies: 5 days of growth in the upper CAM; axelopran 1.0 mg/kg, pembrolizumab 2.5 mg/kg, bevacizumab 4 mg/kg. On the procedure:
The chicken egg chorioallantoic membrane assay (FIG. 3B) allows for the study of tumor progression of injected tumor cells in the presence of active endogenous immune surveillance, but again in the absence of an active gut microbiome.
Breast cancer cell tumor progression was assessed in the chicken egg, chorioallantoic membrane assay. The experimental timing is shown below in FIG. 9. Fertilized chicken eggs were incubated for 9 days. The MDA-MB-231 tumor cell line was cultivated in D-MEM medium supplemented with 10% FBS and 1% penicillin/streptomycin. On day E9, cells were detached with trypsin, washed with complete medium and suspended in graft medium. An inoculum of 1×10^6 cells was added onto the CAM of each egg (E9) and then eggs were randomized into groups. Tumor cells (breast cancer MDA-MB231 cells (10^6)) were then seeded on the upper CAM and further incubated for 3 three days. Test agents were then added to the same site at selected concentrations. Following five days of further incubation the growing tumor was excised, freed of CAM tissue, and weighed.
For this testing, the chicken eggs were treated with: axelopran; pembrolizumab (Pembro); axelopran+pembrolizumab; bevacizumab (Beva); axelopran+bevacizumab; pembrolizumab+bevacizumab; and axelopran+pembrolizumab+bevacizumab. Axelopran was used at dose of 1.0 mg/kg; pembrolizumab was used at a dose of 2.5 mg/kg; and bevacizumab was used at a dose of 4 mg/kg. The results of this testing are shown in FIG. 10A, 10B, 11 and Table 2-2.

Another data set has as its system M-001 melanoma cells. As to the kind of experiment: Melanoma tumor progression in Zebra fish larvae. The data set is classed as in vivo, zebrafish. The following applies: Pembro +TILS, no axelopran, 72 hours of growth. How it is done: Zebra fish larvae (FIG. 3A) allow direct visualization of injected tumor cell growth and metastasis (collectively tumor progression) using fluorescently label tumor cells. At this developmental stage both the zebra fish immune system and gut microbiome are immature or lacking. Co-injection of exogenous tumor infiltrating lymphocytes (ex-TILS) allows the separate study of immune surveillance in the absence of a microbiome.
(§1) The toxicity screening period covered the first 72 hours of development. The efficacy evaluation of Axelopran was made using M-001 melanoma cells and matching TILs. Two-day old zebrafish embryos were subcutaneously injected into the perivitelline space with approximately 700 M-001 cells labelled with Dil red fluorescent dye and intravenously injected with TILs with or without pembrolizumab antibody. At the same time, MOR-antagonist test doses were added to the water. Following an additional 72 hours of further development, the fish were assayed for tumor growth (size of original tumor implant) and metastasis disseminated to the distal caudal venous plexus (CVP) three days after implantation.
The testing described above was repeated studying the effects of various doses of axelopran (0, 50 nM, 100 nM, 500 nM, and 1000 nM) alone, pembrolizumab alone, or pembrolizumab in combination with axelopran. The results of this testing are shown in FIG. 7, which depicts a summary of melanoma tumor progression (tumor size×#metastasis) in the presence of increasing axelopran concentrations or the checkpoint inhibitor pembrolizumab. For experiments using pembrolizumab, exogenous tumor-infiltrating lymphocytes (TILs) were also injected. The additional controls included the effect of TILs alone and with axelopran (500 nM) and pembrolizumab and TILs alone and with axelopran (500 nM). *=<0.05, **=<0.005, ***=<0.0005.

For a further data set, the system named is Zebra fish larvae. Nature of the data set: Zebra fish larvae mortality in combination therapy study. The data set is classed as in vivo, zebrafish. The following applies: TILs plus pembrolizumab. How it is done:
as §1
For study investigating combination therapy, the Zebra fish larvae mortality was also investigated.

Take `C[N@+]1(CC2CC2)CC[C@]23c4c5ccc(O)c4O[C@H]2C(=O)CC[C@@]3(O)[C@H]1C5` [methylnaltrexone]: the “angiogenesis (HUVEC cell tube formation)” value in data set [1] is “inhibit angiogenesis”. Take `C=CCN1CC[C@]23c4c5ccc(O)c4O[C@H]2[C@@H](OCCOCCOCCOCCOCCOCCOCCOC)CC[C@@]3(O)[C@H]1C5` [naloxegol]: the “angiogenesis (HUVEC cell tube formation)” value in data set [1] is recorded as “inhibit angiogenesis”.

On to `C=CCN1CC[C@]23c4c5ccc(O)c4O[C@H]2C(=O)CC[C@@]3(O)[C@H]1C5` [naloxone], for which, in data set [2], the “opioids-induced angiogenesis and angiogenesis by itself” value is recorded as “neither antagonizes opioids-induced angiogenesis nor induces angiogenesis by itself”. For the molecule bevacizumab: an anti-VEGF antibody, the “Breast cancer tumor progression index (tumor size × metastasis), Mean” value in data set [3] is reported as 0.28 fraction of negative control.

Consider “pembrolizumab: an anti-PD1 antibody, checkpoint inhibitor”, for which, in the data set on M-001 melanoma cells, the “Melanoma tumor progression index (tumor size × metastasis), Mean” value was found to be 4.83. In the data set on Zebra fish larvae, the “Zebra fish larvae mortality” value is recorded as 63%. The “Breast cancer tumor progression index (tumor size × metastasis), Mean” value in data set [3] was 0.54 fraction of negative control.
